US20070049593A1 (priority 2004, published 2007)
pIC50: −log10 of the molar value. Counter-ions that a name gives are not always drawn.

Target: T1, HCV polymerase (Hepatitis C virus genotype 1b, UniProt P26663)
T1 construct: a region encoding NS5B (J Virol 1991 March, 65(3), 1105-13, 544 amino acids after deletion of 47 amino acids on the C-terminal); 6xHis (C); made in house; host or cells: Escherichia coli
Experiment: biochemical
Set-up: species or system HCV BK strain
Outline: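 His-tagged NS5B (BK strain, 47-aa C-terminal deletion, E. coli-expressed) at 0.5 μg/ml copied 5 μg/ml run-off RNA bearing the HCV 3′ UTR with 2 μM UTP plus [3H]UTP, 50 μM ATP/GTP, in pH 7.5 Tris with 5 mM MgCl2, 25 °C, 90 min. TCA-precipitated RNA was counted and IC50 calculated.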

T1 sequence (P26663 2420-2963): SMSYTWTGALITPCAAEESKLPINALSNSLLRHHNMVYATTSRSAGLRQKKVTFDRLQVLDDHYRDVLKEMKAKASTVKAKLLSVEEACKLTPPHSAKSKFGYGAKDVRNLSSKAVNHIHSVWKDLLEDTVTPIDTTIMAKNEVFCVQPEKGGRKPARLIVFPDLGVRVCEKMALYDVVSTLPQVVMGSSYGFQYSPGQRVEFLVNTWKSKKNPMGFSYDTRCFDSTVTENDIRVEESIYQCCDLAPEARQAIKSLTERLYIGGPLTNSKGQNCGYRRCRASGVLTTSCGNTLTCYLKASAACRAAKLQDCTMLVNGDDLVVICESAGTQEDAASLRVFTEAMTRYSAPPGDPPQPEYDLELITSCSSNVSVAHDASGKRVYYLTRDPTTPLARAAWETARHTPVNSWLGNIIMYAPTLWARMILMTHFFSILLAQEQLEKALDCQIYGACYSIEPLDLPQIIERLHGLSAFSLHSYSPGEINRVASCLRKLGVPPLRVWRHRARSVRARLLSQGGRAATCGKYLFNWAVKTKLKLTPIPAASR

Row | SMILES | pIC50
1 | COCCOc1cc2[nH]c(C3(NC(=O)c4ccc5c(C6CCCCC6)c6n(c5c4)CCOc4cc(OC)ccc4-6)CCC3)nc2cc1CO [Example 2-438, N-{1-[5-hydroxymethyl-6-(2-methoxyethoxy)-1H-benzimidazol-2-yl]cyclobutyl}-12-cyclohexyl-3-methoxy-6,7-dihydro-5-oxa-7a-azadibenzo[a,e]azulene-9-carboxamide] | > 7.00
2 | COC[C@@H]1CCCN(CCN2CCn3c(c(C4CCCCC4)c4ccc(C(=O)O)cc43)-c3cc(F)c(F)cc32)C1 [Example 1-530, 13-cyclohexyl-2,3-difluoro-5-[2-7((R)-3-methoxymethylpiperidin-1-yl)ethyl]-6,7-dihydro-5H-benzo[5,6][1,4]diazepino[7,1-a]indole-10-carboxylic acid dihydrochloride] | > 7.00
3 | O=C(O)c1ccc2c(C3CCCCC3)c3n(c2c1)CCN(CC(=O)N1CCCCC1)c1cc(Cl)ccc1-3 [Example 1-77, 3-chloro-13-cyclohexyl-5-[2-oxo-2-(piperidin-1-yl)ethyl]-6,7-dihydro-5H-benzo[5,6][1,4]diazepino[7,1-a]indole-10-carboxylic acid monohydrochloride] | > 7.00
4 | CC(=O)N1CCN(CCN2CCn3c(c(C4CCCCC4)c4ccc(C(=O)O)cc43)-c3ccccc32)CC1 [Example 1-98, 5-[2-(4-acetylpiperazin-1-yl)ethyl]-13-cyclohexyl-6,7-dihydro-5H-benzo[5,6][1,4]diazepino[7,1-a]indole-10-carboxylic acid dihydrochloride] | > 7.00
5 | O=C(O)c1ccc2c(C3CCCCC3)c3n(c2c1)CCOc1cc(OCc2ccccc2N2CCOCC2)ccc1-3 [Example 2-14, 12-cyclohexyl-3-[2-(morpholin-4-yl)benzyloxy]-6,7-dihydro-5-oxa-7a-azadibenzo[a,e]azulene-9-carboxylic acid monohydrochloride] | > 7.00
6 | CCCN(CCN1CCCCC1)c1cccc2c1OCCn1c-2c(C2CCCCC2)c2ccc(C(=O)NC(C)(C)C(=O)O)cc21 [Example 2-276, 2-[(12-cyclohexyl-4-{N-[2-(piperidin-1-yl)ethyl]-N-propylamino}-6,7-dihydro-5-oxa-7a-azadibenzo[a,e]azulene-9-carbonyl)amino]-2-methylpropionic acid] | > 7.00
7 | CC(C)(C)OC(=O)N1CCCCC1CCN1CCn2c(c(C3CCCCC3)c3ccc(C(=O)O)cc32)-c2ccccc21 (centres unmarked) [Example 1-161, 5-[2-(1-tert-butoxycarbonylpiperidin-2-yl)ethyl]-13-cyclohexyl-6,7-dihydro-5H-benzo[5,6][1,4]diazepino[7,1-a]indole-10-carboxylic acid monohydrochloride] | > 7.00
8 | O=C(O)c1ccc2c(C3CCCCC3)c3n(c2c1)CCN(CC(=O)N1CCCC(O)C1)c1ccccc1-3 (centres unmarked) [Example 1-106, 13-cyclohexyl-5-[2-(3-hydroxypiperidin-1-yl)-2-oxoethyl]-6,7-dihydro-5H-benzo[5,6][1,4]diazepino[7,1-a]indole-10-carboxylic acid monohydrochloride] | > 7.00
9 | CCCc1ccc2c(c1)N(CCN1CCCC(C)C1)CCn1c-2c(C2CCCCC2)c2ccc(C(=O)O)cc21 (centres unmarked) [Example 1-356, 13-cyclohexyl-5-[2-(3-methylpiperidin-1-yl)ethyl]-3-propyl-6,7-dihydro-5H-benzo[5,6][1,4]diazepino[7,1-a]indole-10-carboxylic acid dihydrochloride] | > 7.00
10 | CCOC1CCCN(CCN2CCn3c(c(C4CCCCC4)c4ccc(C(=O)O)cc43)-c3ccc(C)cc32)C1 (centres unmarked) [Example 1-325, 13-cyclohexyl-5-[2-(3-ethoxypiperidin-1-yl)ethyl]-3-methyl-6,7-dihydro-5H-benzo[5,6][1,4]diazepino[7,1-a]indole-10-carboxylic acid monohydrochloride] | > 7.00
11 | CCS(=O)(=O)N1CCN(CCN2CCn3c(c(C4CCCCC4)c4ccc(C(=O)O)cc43)-c3ccccc32)CC1 [Example 1-224, 13-cyclohexyl-5-[2-(4-ethanesulfonylpiperazin-1-yl)ethyl]-6,7-dihydro-5H-benzo[5,6][1,4]diazepino[7,1-a]indole-10-carboxylic acid dihydrochloride] | > 7.00
12 | O=C(O)c1ccc2c(C3CCCCC3)c3n(c2c1)CCN(CCN1CCC(O)CC1)c1ccccc1-3 [Example 1-42, 13-cyclohexyl-5-[2-(4-hydroxypiperidin-1-yl)ethyl]-6,7-dihydro-5H-benzo[5,6][1,4]diazepino[7,1-a]indole-10-carboxylic acid dihydrochloride] | > 7.00
13 | COCC1CCCN(CCN2CCn3c(c(C4CCCCC4)c4ccc(C(=O)O)cc43)-c3ccc(OCc4ccccc4)cc32)C1 (centres unmarked) [Example 1-358, 3-benzyloxy-13-cyclohexyl-5-[2-(3-methoxymethylpiperidin-1-yl)ethyl]-6,7-dihydro-5H-benzo[5,6][1,4]diazepino[7,1-a]indole-10-carboxylic acid dihydrochloride] | > 7.00
14 | O=C(O)c1ccc2c(C3CCCCC3)c3n(c2c1)CCN(CCN1CCN(C(=O)c2ccccc2)CC1)c1ccccc1-3 [Example 1-88, 5-[2-(4-benzoylpiperazin-1-yl)ethyl]-13-cyclohexyl-6,7-dihydro-5H-benzo[5,6][1,4]diazepino[7,1-a]indole-10-carboxylic acid dihydrochloride] | > 7.00
15 | CC(C)N(C)CCN1CCn2c(c(C3CCCCC3)c3ccc(C(=O)O)cc32)-c2ccccc21 [Example 1-212, 13-cyclohexyl-5-[2-(N-isopropyl-N-methylamino)ethyl]-6,7-dihydro-5H-benzo[5,6][1,4]diazepino[7,1-a]indole-10-carboxylic acid dihydrochloride] | > 7.00
16 | COCC[C@H]1CCCN(CCN2CCn3c(c(C4CCCCC4)c4ccc(C(=O)O)cc43)-c3ccc(Cl)cc32)C1 [Example 1-398, 3-chloro-13-cyclohexyl-5-{2-[(R)-3-(2-methoxyethyl)piperidin-1-yl]ethyl}-6,7-dihydro-5H-benzo[5,6][1,4]diazepino[7,1-a]indole-10-carboxylic acid dihydrochloride] | > 7.00
17 | CC(=O)N1CCCN(CCN2CCn3c(c(C4CCCCC4)c4ccc(C(=O)O)cc43)-c3ccc(C)cc32)CC1 [Example 1-504, 5-[2-(4-acetyl-1,4-diazepan-1-yl)ethyl]-13-cyclohexyl-3-methyl-6,7-dihydro-5H-benzo[5,6][1,4]diazepino[7,1-a]indole-10-carboxylic acid dihydrochloride] | > 7.00
18 | COc1ccc2c(c1)OCCn1c-2c(C2CCCCC2)c2ccc(C(=O)NC(C)(C)c3nc4cc(CO)ccc4[nH]3)cc21 [Example 2-405, N-[1-(5-hydroxymethyl-1H-benzimidazol-2-yl)-1-methylethyl]-12-cyclohexyl-3-methoxy-6,7-dihydro-5-oxa-7a-azadibenzo[a,e]azulene-9-carboxamide] | > 7.00
19 | Cc1cc(COc2ccc3c(c2)N(CCN(C)C)CCn2c-3c(C3CCCCC3)c3ccc(C(=O)O)cc32)no1 [Example 1-374, 13-cyclohexyl-5-(2-dimethylaminoethyl)-3-(5-methylisoxazol-3-ylmethoxy)-6,7-dihydro-5H-benzo[5,6][1,4]diazepino[7,1-a]indole-10-carboxylic acid dihydrochloride] | > 7.00
20 | CC(C)(NC(=O)c1ccc2c(C3CCCCC3)c3n(c2c1)CCOc1ccccc1-3)c1ccc(OCC(=O)O)cc1 [Example 2-241, (4-{1-[(12-cyclohexyl-6,7-dihydro-5-oxa-7a-azadibenzo[a,e]azulene-9-carbonyl)amino]-1-methylethyl}phenoxy)acetic acid] | > 7.00
21 | COCC1CCN(CCN2CCn3c(c(C4CCCCC4)c4ccc(C(=O)O)cc43)-c3ccc(C)cc32)CC1 [Example 1-315, 13-cyclohexyl-5-[2-(4-methoxymethylpiperidin-1-yl)ethyl]-3-methyl-6,7-dihydro-5H-benzo[5,6][1,4]diazepino[7,1-a]indole-10-carboxylic acid dihydrochloride] | > 7.00
22 | CCCN1CCC(CCN2CCn3c(c(C4CCCCC4)c4ccc(C(=O)O)cc43)-c3ccccc32)CC1 [Example 1-173, 13-cyclohexyl-5-[2-(1-propylpiperidin-4-yl)ethyl]-6,7-dihydro-5H-benzo[5,6][1,4]diazepino[7,1-a]indole-10-carboxylic acid dihydrochloride] | > 7.00
23 | CCN1CCn2c(c(C3CCCCC3)c3ccc(C(=O)NC4(C(=O)Nc5ccc(/C=C/C(=O)O)cc5)CCC4)cc32)-c2ccc(OC)cc21 [Example 1-477, (E)-3-[4-({1-[(13-cyclohexyl-5-ethyl-3-methoxy-6,7-dihydro-5H-benzo[5,6][1,4]diazepino[7,1-a]indole-10-carbonyl)amino]cyclobutanecarbonyl}amino)phenyl]acrylic acid] | > 7.00
24 | CC1CCCN(C(=O)CN2CCn3c(c(C4CCCCC4)c4ccc(C(=O)O)cc43)-c3ccccc32)C1 (centres unmarked) [Example 1-122, 13-cyclohexyl-5-[2-(3-methylpiperidin-1-yl)-2-oxoethyl]-6,7-dihydro-5H-benzo[5,6][1,4]diazepino[7,1-a]indole-10-carboxylic acid monohydrochloride] | > 7.00
25 | O=C(O)c1ccc2c(C3CCCCC3)c3n(c2c1)CCN(CC(=O)N1CCc2ccccc2C1)c1ccccc1-3 [Example 1-138, 13-cyclohexyl-5-[2-(3,4-dihydro-1H-isoquinolin-2-yl)-2-oxoethyl]-6,7-dihydro-5H-benzo[5,6][1,4]diazepino[7,1-a]indole-10-carboxylic acid monohydrochloride] | > 7.00
26 | O=C(O)c1ccc2c(C3CCCCC3)c3n(c2c1)CCOc1c(OCCOC2CCNCC2)cccc1-3 [Example 2-466, 12-cyclohexyl-4-[2-(piperidin-4-yloxy)ethoxy]-6,7-dihydro-5-oxa-7a-azadibenzo[a,e]azulene-9-carboxylic acid monohydrochloride] | > 7.00
